In the NIST ThermoML archive (doi:10.1021/je050054u):

Settings: Liquid, Closed cell (Static) method

CCF [fluoroethane]
Settings	vapor or sublimation pressure [kPa]
235.69 K	101.5
235.74 K	101.7
235.79 K	101.9
235.84 K	102.2
235.89 K	102.4
235.94 K	102.6
236 K	102.9
236.09 K	103.4
237.11 K	108.3
238.07 K	113.3
240.11 K	124.1
242.12 K	135.4
244.1 K	147.6
245.09 K	153.8
247.09 K	167.1
249.1 K	181.5
251.07 K	196.3
253.11 K	212.7
255.11 K	229.7
257.13 K	247.8
259.11 K	267.6
261.11 K	288
263.12 K	309.5
264.11 K	320.7
265.1 K	332.4
266.12 K	344.5
267.13 K	356.6
268.13 K	369.1
269.13 K	382
270.13 K	395.3
271.13 K	408.8
272.15 K	422.9
273.12 K	436.7
274.11 K	451.2
275.11 K	466
276.14 K	481.8
277.14 K	497.5
278.17 K	513.9
279.14 K	529.9
280.13 K	546.6
281.13 K	563.9
282.16 K	581.9
283.14 K	599.6
285.18 K	636.5
287.13 K	675.1
288.13 K	695.2
290.14 K	737.5
292.01 K	777.9
294.03 K	824.2
296.04 K	871.8
298.07 K	921.9
300.05 K	972.9
302 K	1024.9
304.03 K	1081.4
306.12 K	1141.9
308.08 K	1200.9
310.32 K	1270.6
312.19 K	1330.5
314.18 K	1398.1
316.32 K	1472.8
316.33 K	1473.6
318.17 K	1539.8
320.14 K	1613.2
322.13 K	1690.2
324.12 K	1770.2
326.11 K	1852.2
328.13 K	1938.9
330.15 K	2027
332.15 K	2119.3
333.15 K	2167.4
334.16 K	2215.1
335.15 K	2263.9
336.15 K	2313.2
337.15 K	2363.2
338.16 K	2414.5
339.15 K	2465.8
340.16 K	2518.5
341.15 K	2572
342.15 K	2626.3
343.15 K	2681.7
344.14 K	2737.4
345.15 K	2794.3
346.15 K	2852.2
347.15 K	2910.8
348.15 K	2970.7
349.15 K	3030.8
350.15 K	3092.2
351.15 K	3154.5
352.15 K	3218
353.14 K	3282
354.15 K	3347.6
355.15 K	3414.2
356.15 K	3481.2
357.14 K	3549.5
358.14 K	3619.1
359.14 K	3689.1
360.15 K	3761.3
361.15 K	3834
362.16 K	3908
363.14 K	3982.2
364.14 K	4058.4
364.15 K	4060.2
365.14 K	4138
366.15 K	4216.8
367.15 K	4295.8
368.16 K	4376.8
369.14 K	4460.1
370.14 K	4543.5
371.14 K	4627.6
372.14 K	4713.9
